Test results as given in patent publication US9662318B2, “Bitopic muscarinic agonists and antagonists and methods of synthesis and use thereof” (BARRY UNIVERSITY, INC., priority 2012, dated 2017).
Structures can show the parent of a compound that is named as a salt.

Experiments:
M3 muscarinic receptor [1] = target: T1, M3 muscarinic receptor (Homo sapiens, UniProt P20309); assay: Accumulation of inositol phosphates in CHO cells; assay type: cell-based; conditions: ligand 0.1 mM, no carbachol
T1 construct: host or cells: Chinese hamster ovary cells
T1 sequence (P20309 whole entry): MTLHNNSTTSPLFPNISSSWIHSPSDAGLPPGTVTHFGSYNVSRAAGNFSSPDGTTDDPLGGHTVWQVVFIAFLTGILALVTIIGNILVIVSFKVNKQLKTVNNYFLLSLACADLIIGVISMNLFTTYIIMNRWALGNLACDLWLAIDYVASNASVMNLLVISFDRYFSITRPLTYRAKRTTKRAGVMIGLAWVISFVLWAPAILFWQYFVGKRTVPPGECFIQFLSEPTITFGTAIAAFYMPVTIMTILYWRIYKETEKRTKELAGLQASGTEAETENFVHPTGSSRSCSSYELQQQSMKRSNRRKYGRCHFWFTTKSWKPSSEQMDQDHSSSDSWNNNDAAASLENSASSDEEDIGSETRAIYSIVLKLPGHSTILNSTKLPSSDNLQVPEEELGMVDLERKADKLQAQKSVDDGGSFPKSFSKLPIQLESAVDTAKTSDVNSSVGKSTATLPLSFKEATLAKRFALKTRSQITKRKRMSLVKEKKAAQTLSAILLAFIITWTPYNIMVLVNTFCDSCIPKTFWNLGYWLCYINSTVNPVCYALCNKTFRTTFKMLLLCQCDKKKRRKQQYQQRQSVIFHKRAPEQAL
Method: (§3) Chinese hamster ovary cells stably transfected with the genes of human variants of muscarinic receptors were purchased from Missouri S&T cDNA Resource Center (Rolla, Mo., USA). […] Cells were grown to confluency in 75 cm^2 flasks in Dulbecco's modified Eagle's medium supplemented with 10% fetal bovine serum and 2 million of cells were subcultured to 100 mm Petri dishes. Medium was supplemented with 5 mM butyrate for the last 24 hours of cultivation to increase receptor expression.
(§4) Inositolphosphates formation was determined in cells pre-labeled overnight by 0.5 μM [^3H]myo-inositol in 0.3 mL of DMEM (3 μCi/ml) at 37° C. […] Incubation was stopped by removal of incubation buffer and addition 0.2 mL 20% trichloracetic acid (TCA). After 1 h incubation at 4° C., 100 μL, of TCA extracts were taken for measurement. Rest of the TCA was removed, and TCA precipitates were washed with 200 μL TCA and dissolved in 200 μL of 1 M NaOH. After 1 h incubation at 4° C., 100 μL, of NaOH lysates were taken for measurement. Radioactivity in TCA extracts and NaOH lysates were determined by liquid scintillation counting. The rate of inositolphosphates accumulation was calculated as a percentage of the soluble (released) inositolphosphates from the total incorporated radioactivity (sum of radioactivity in NaOH lysates and TCA extracts).
(§5) EC50 values are expressed as negative logarithms and EMAX values as folds over basal, Table 7.

M3 muscarinic receptor [2] = target: T1, M3 muscarinic receptor; assay: Competition with [3H]NMS (equilibrium binding, CHO membranes); conditions: read-out: Binding Equilibrium Constants (expressed as pKI) (converted)
Method: (§1) All radioligand binding experiments were optimized and carried out as described earlier. Briefly, membranes were incubated in 96-well plates at 30° C. in the incubation medium described. […] Dissociation was initiated by addition of atropine to final concentration of 5 Tested ligands in final concentration of 100 μM were added concurrently with atropine. Incubations were terminated by filtration through Whatman GF/C glass fiber filters (Whatman) using a Brandel cell harvester (Brandel, Gaithersburg, Md., USA). Filters were dried in vacuum for 1 h while heated at 80° C. and then solid scintillator Meltilex A was melted on filters (105° C., 90 s) using a hot plate. The filters were cooled and counted in Wallac Microbeta scintillation counter.
(§2) Inhibition constant KI was calculated as: […]

M4 muscarinic receptor [3] = target: T2, M4 muscarinic receptor (Homo sapiens, UniProt P08173); assay: as above; conditions: read-out: Binding Equilibrium Constants (expressed as pKI) (converted)
T2 construct: host or cells: Chinese hamster ovary cells
T2 sequence (P08173 1-479): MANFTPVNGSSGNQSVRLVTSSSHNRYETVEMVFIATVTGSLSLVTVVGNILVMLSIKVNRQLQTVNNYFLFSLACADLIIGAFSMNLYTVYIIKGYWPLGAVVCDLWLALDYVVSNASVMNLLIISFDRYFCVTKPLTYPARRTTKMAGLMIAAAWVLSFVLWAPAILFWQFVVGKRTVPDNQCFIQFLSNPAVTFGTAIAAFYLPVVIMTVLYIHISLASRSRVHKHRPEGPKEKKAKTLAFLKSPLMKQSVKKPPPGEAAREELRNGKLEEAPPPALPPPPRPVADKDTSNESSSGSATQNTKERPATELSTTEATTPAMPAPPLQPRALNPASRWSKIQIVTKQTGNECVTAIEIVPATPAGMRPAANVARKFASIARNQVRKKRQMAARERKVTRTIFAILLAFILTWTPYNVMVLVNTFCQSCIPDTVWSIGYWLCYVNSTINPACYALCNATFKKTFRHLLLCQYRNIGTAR
Method: as §1, §2

M1 muscarinic receptor [4] = target: T3, M1 muscarinic receptor (Homo sapiens, UniProt P11229); assay: as above; conditions: for Ki: read-out: Binding Equilibrium Constants (expressed as pKI) (converted)
T3 sequence (P11229 1-460): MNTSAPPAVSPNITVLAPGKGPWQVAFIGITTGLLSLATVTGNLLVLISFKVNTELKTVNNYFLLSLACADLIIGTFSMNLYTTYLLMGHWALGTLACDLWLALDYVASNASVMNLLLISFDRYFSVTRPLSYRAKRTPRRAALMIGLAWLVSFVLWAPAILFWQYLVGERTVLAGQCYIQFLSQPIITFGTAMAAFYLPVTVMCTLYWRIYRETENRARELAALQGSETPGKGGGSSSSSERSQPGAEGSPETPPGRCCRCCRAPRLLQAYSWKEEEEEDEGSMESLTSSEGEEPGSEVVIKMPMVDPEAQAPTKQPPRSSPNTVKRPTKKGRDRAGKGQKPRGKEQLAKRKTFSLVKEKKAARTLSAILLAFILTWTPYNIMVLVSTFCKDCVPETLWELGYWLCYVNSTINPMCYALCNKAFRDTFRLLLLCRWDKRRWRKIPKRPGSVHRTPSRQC
Method: as §1, §2

M4 muscarinic receptor [5] = target: T2, M4 muscarinic receptor; assay: Accumulation of inositol phosphates in CHO cells; assay type: cell-based; conditions: for Effect of ligands on basal activity (accumulation of inositol phosphates as percent of accumulation in the absence of the ligand): M4, ligand 0.1 mM, no carbachol
Method: as §3, §4, §5

M5 muscarinic receptor [6] = target: T4, M5 muscarinic receptor (Homo sapiens, UniProt P08912); assay: Competition with [3H]NMS (equilibrium binding, CHO membranes); conditions: read-out: Binding Equilibrium Constants (expressed as pKI) (converted)
T4 construct: host or cells: CHO (Chinese hamster ovary) cells, stably transfected
T4 sequence (P08912 1-532): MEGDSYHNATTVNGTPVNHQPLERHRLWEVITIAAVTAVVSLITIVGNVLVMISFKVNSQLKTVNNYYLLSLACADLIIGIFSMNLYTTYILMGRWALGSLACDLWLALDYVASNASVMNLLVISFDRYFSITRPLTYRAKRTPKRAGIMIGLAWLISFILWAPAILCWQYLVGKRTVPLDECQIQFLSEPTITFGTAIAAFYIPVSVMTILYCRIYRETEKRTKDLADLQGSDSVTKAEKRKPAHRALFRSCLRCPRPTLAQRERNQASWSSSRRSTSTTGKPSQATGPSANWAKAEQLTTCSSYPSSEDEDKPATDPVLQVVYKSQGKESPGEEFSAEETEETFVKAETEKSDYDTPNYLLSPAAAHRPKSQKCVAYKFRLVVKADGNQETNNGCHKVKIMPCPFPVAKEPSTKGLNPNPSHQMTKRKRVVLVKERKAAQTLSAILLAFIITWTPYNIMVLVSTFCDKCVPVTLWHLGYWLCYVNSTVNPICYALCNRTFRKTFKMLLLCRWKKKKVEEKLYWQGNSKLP
Method: as §1, §2

M1 muscarinic receptor [7] = target: T3, M1 muscarinic receptor; assay: Accumulation of inositol phosphates in CHO cells; assay type: cell-based; conditions: ligand 0.1 mM, no carbachol
Method: as §3, §4, §5

M5 muscarinic receptor [8] = target: T4, M5 muscarinic receptor; assay: Accumulation of inositol phosphates in CHO cells; assay type: cell-based; conditions: for Effect of ligands on basal activity (accumulation of inositol phosphates as percent of accumulation in the absence of the ligand): M5, ligand 0.1 mM, no carbachol
Method: as §3, §4, §5

[9] = test system: M1-M5 muscarinic receptors; assay: Accumulation of inositol phosphates, statements over all subtypes; assay type: cell-based, human; conditions: for basal functional response (in the absence of carbachol): 0.1 mM, at all receptor subtypes; for functional selectivity of antagonism: from shifts in carbachol EC50, Table 6
Method: Antagonism of tested compounds was determined at single high concentration of 0.1 mM.

[10] = test system: M1-M5 muscarinic receptors; assay: Competition with [3H]NMS, statements over all subtypes; assay type: binding, human; conditions: versus other subtypes; from pKI, Table 4
M5 muscarinic receptor [11] = target: T4, M5 muscarinic receptor; assay: [3H]NMS saturation binding; conditions: M5 CHO membranes; binding sites per mg of membrane protein

SMILES | Effect of ligands on basal activity (accumulation of inositol phosphates as percent of accumulation in the absence of the ligand) (M3 muscarinic receptor [1]) [%] | Ki (M3 muscarinic receptor [2]) [µM] | Ki (M4 muscarinic receptor [3]) [µM] | Ki (M1 muscarinic receptor [4]) [µM] | Effect of ligands on basal activity (accumulation of inositol phosphates as percent of accumulation in the absence of the ligand) (M4 muscarinic receptor [5]) [%] | Ki (M5 muscarinic receptor [6]) [µM] | higher affinity for M1 receptor (M1 muscarinic receptor [4]; versus other subtypes, from pKI, Table 4) | Effect of ligands on basal activity (accumulation of inositol phosphates as percent of accumulation in the absence of the ligand) (M1 muscarinic receptor [7]) [%] | Effect of ligands on basal activity (accumulation of inositol phosphates as percent of accumulation in the absence of the ligand) (M5 muscarinic receptor [8]) [%] | basal functional response (in the absence of carbachol) [9] | functional selectivity of antagonism [9] | higher affinity for the M2 and M5 receptors [10] | BMAX (M5 muscarinic receptor [11]) [pmol/mg] | EMAX (M5 muscarinic receptor [8]; M5 CHO cells, accumulation of inositol phosphates) [fold over basal] | EMAX (M4 muscarinic receptor [5]; M4 CHO cells, accumulation of inositol phosphates) [fold over basal]
CCCCOc1ccc(C(=O)OCCN2CC=CCC2)cc1 [Compound 9a, 2-(1,2,5,6-tetrahydropyridine-N-ethyl)-4-butoxybenzoate hydrochloride] | 100 ± 1 | 7.94 | 12.6 | 6.31 | 100 ± 6 |  |  |  |  |  |  |  |  |  | 
CCCCc1ccc(C(=O)OCCN2CC=CCC2)cc1 [Compound 9b, 2-(1,2,5,6-tetrahydropyridine-N-ethyl)-4-butylbenzoate hydrochloride] | 81 ± 5 | 15.8 | 25.1 | 7.94 | 73 ± 6 | 25.1 | two to three-fold | 85 ± 4 | 88 ± 3 | lowered basal functional response | M1/M4 functionally selective antagonists |  |  |  | 
CCCCOc1ccc(C(=O)OCC[N+]2(C)CC=CCC2)cc1 (stereo not drawn) [Compound 10a, 2-(1,2,5,6-tetrahydropyridine-N-ethyl)-4-butoxybenzoate N-methyl iodide] | 74 ± 3 | 6.31 | 7.94 | 2.51 | 74 ± 7 | 3.16 |  | 83 ± 3 | 89 ± 3 | lowered basal functional response |  |  |  |  | 
CCCCc1ccc(C(=O)OCC[N+]2(C)CC=CCC2)cc1 (stereo not drawn) [Compound 10b, 2-(1,2,5,6-tetrahydropyridine-N-ethyl)-4-butylbenzoate N-methyl iodide] |  | 3.98 | 3.98 | 2.51 |  | 1.58 |  | 98 ± 9 | 90 ± 10 |  |  |  |  |  | 
CCCCCCOc1ccc(C(=O)OCC[N+]2(C)CC=CCC2)cc1 (stereo not drawn) [Compound 10c, 2-(1,2,5,6-tetrahydropyridine-N-ethyl)-4-hexoxybenzoate N-methyl iodide] | 101 ± 1 | 0.398 | 0.398 |  | 100 ± 2 | 0.158 |  | 101 ± 1 | 101 ± 1 |  |  | one to three fold |  |  | 
CCCCc1ccc(C(=O)OCC[N+]2(C)CCCCC2)cc1 [Compound 13b, 2-(N-Piperidineethyl) p-butylbenzoyl ester N-methyl iodide] | 104 ± 4 | 2.04 | 3.98 | 3.16 | 107 ± 4 | 2.45 |  | 104 ± 4 | 104 ± 4 |  | M1/M5 functionally selective |  |  |  | 
CCCCc1ccc(C(=O)OCCN2CCCCC2)cc1 [Compound 14b] | 103 ± 3 | 6.31 | 9.77 | 3.98 | 106 ± 1 | 5.01 |  | 103 ± 3 | 103 ± 3 |  | M1/M3 functionally selective antagonist |  |  |  | 
C[N+]1(C)[C@@H]2C[C@@H](OC(=O)[C@H](CO)c3ccccc3)C[C@H]1[C@@H]1O[C@@H]12 [NMS, N-methyl scopolamine] |  |  |  |  |  |  |  |  |  |  |  |  | 1.0 ± 0.1 |  | 
C[N+](C)(C)CCOC(N)=O [carbachol, Carbachol, reference compound] |  |  |  |  |  |  |  |  |  |  |  |  |  | 2.5 ± 0.2 | 3.3 ± 0.3
